In publication PMC5431435, “A short artificial antimicrobial peptide shows potential to prevent or treat bone infections” (Scientific Reports, 2017):

Assays:
[1] = system: human primary osteoblast-like cells; assay: Scratch assay (cell migration); assay type: cell-based
Method: (3) The effect of AMP2 on cell migration was assessed. Human primary osteoblast-like cells were seeded into 24-well plates and cultured in cultivation media. After reaching confluence, medium was removed and a cross scratch was made using a 10 µl pipette tip using a modified protocol. […] Using ImageJ software (version 1.4.8.; https://imagej.nih.gov/ij/) the diameter of the scratch was measured and the closure over time calculated (n = 3).

S. aureus = assay: Effect of FCS on AMP2 activity; assay type: cell-based, Staphylococcus aureus; details: for bacterial growth: then 3 h with S. aureus, mean ± StD, n = 3
Method: In a further experiment the possible effect of serum on AMP activity was investigated. AMP2 (67 µg/ml) was preincubated for 2 hours at 37 °C with different concentrations of FCS and then added to S. aureus.
In addition, the influence of fetal calf serum (FCS, containing 17 g/l albumin; Biochrom, Germany) on AMP activity was determined by preincubating 67 µg/ml of the AMP2 with 0–10% FCS at 37 °C for 2 hours followed by incubation with S. aureus for 3 hours. The control group, without AMP, was FCS free (n = 3).

[2] = system: human primary osteoblast-like cells; assay type: cell-based
Method: (1) For the cytotoxicity test, 1 × 10^4 cells were seeded in 48-well plates with cultivation medium (CM) DMEM/Ham’s F-12 (D/H; Biochrom, Germany) + 10% fetal calf serum (FCS; Biochrom, Germany) + 1% penicillin/streptomycin (P/S; Biochrom, Germany) + 0.05 mM L-ascorbic-2 phosphate (L-Asc) + 0.05 mM β-glycerolphosphate (β-Glyc) and incubated overnight at 37 °C, 5% CO2 and 95% relative humidity. After adding the AMPs (3–542 µg/ml - depending on the AMP) or gentamicin (8–1024 µg/ml) in CM with 1% FCS, without Pen/Strep, cells were cultured for three days. Cell viability was determined with an AlamarBlue® assay before adding the AMPs and after 3 days. Alkaline phosphatase activity was measured on day 3.
Alamar Blue® (Biozol, Germany) was done according to the manufacturer’s instruction.

[3] = system: S. aureus internalized in human primary osteoblast-like cells; assay: Effect against internalized bacteria; assay type: cell-based, Staphylococcus aureus; details: CM with 1% FCS, n = 7
Method: Human primary osteoblast-like cells were cultivated in 24-well plates with cultivation medium until they reached a minimum confluence of 80%. For the experiment, cells were washed and S. aureus (ATCC 29213) in cultivation medium added (~2 × 10^7 cfu/ml). After an incubation of 45 minutes, extracellular bacteria were killed using 200 µg/ml gentamicin dissolved in CM with 10% FCS, without P/S. After 1 hour incubation, gentamicin solution was removed, cells washed three times and AMP2 (33 and 67 µg/ml) in CM with only 1% FCS + no P/S added for 4 and 24 hours. As reference, 7.5 µg/ml rifampicin was used. All incubation steps were done in an incubator with 37 °C, 95% humidity and 5% CO2. For determination of the internalized bacteria, cells were lysed and the supernatant plated on CA plates. Experiment were done with n = 7.

S. epidermidis biofilms = assay: FISH of biofilm grown on polyurethane waver; assay type: cell-based, Staphylococcus epidermidis; details: n = 10 pictures
Method: Fluorescence in situ hybridization (FISH) was used to visualize the effect of the AMP2 on a biofilm. S. epidermidis (PIA 8400) biofilm was grown on 5 × 8 mm polyurethane (PU) waver (Epurex Films, Germany) in the incubator at 37 °C for 72 hours under aerobic conditions. After biofilm formation, medium was replaced by MH^++ medium containing different concentrations of the AMP2 (4 or 8 µg/ml) or phosphate buffered saline as control. After further 24 hours of incubation on a rotation shaker, waver were removed, fixed and embedded in methylmethacrylate (Technovit 8100, Kulzer, Germany) and sectioned as described elsewhere. To visualize the biofilm, samples were stained with nucleic acid stain DAPI and the Cy3-labeled Staphylococcus-specific FISH-probe STAPHY (5′[…]3′, biomers, Germany) as published, [52]. A nonsense probe NON338 labeled in Cy5 was used to exclude unspecific probe binding. After incubation in a dark, humid chamber for 2 hours at 50 °C, the slides were rinsed with sterile water, dried, and mounted using Vectashield mounting medium (Vector Laboratories, Burlingame, CA). Image analysis was done using an epifluorescence microscope (Axioplan 2; Carl Zeiss, Jena, Germany) equipped with narrow band filter sets (AHF Analysentechnik, Germany). Image acquisition was performed with an AxioCam MRm (Zeiss, Germany) making use of the AxioVision 4.4 software. Digital image analysis was performed with the daime software. Per group 10 pictures were randomly chosen and analyzed.

[4] = system: human primary osteoblast-like cells; details: differentiation medium with 17 or 133 µg/ml AMP2, days 0, 7, 14, 21
Method: Confluent cells were cultured for 21 days in cultivation medium (CM), differentiation medium (DM: D/H + 10% FCS + 1% P/S + 0.5 mM L-Asc + 10 mM β-Glyc + 100 nM dexamethasone + 1.5 mM calcium chloride) and DM with a low (17 µg/ml) and a high (133 µg/ml) AMP2 concentration. Medium was changed every 3–4 days and fresh AMP was added by each change. Cells from two donors were used and the experiments were done in triplicate (n = 6).
Cells were incubated with 0.13% w/v 4-nitrophenyl phosphate disodium salt hexahydrate (Sigma-Aldrich, Germany) dissolved in 0.1 M AP-buffer (50 mM glycine, 100 mM Tris-Base, 1 mM MgCl2 in dH2O) at pH 10.5 for 30 min at 37 °C and absorbance was measured at 405 nm wavelength. […]
Cells were fixed with 3.7% v/v formalin for 10 min at RT and incubated with 0.5% w/v alizarin red (Sigma-Aldrich, Germany) in dH2O for 10 min at RT. Quantification was done by removing staining with 5% w/v SDS in 5 mM HCl and measuring absorbance at 570 nm.
RNA was isolated after 0, 7, 14 and 21 days in culture using the NucleoSpin RNA Kit (Macherey Nagel, Germany). […] For all primers, amplification efficiencies were analyzed and mean normalized expression (MNE) ratios were calculated using the ΔΔCt method with efficiency correction and normalization to the control (d0 of differentiation) and 18 S ribosomal RNA used as a reference gene.

[5] = 4 µg/ml AMP2, 24 h in MH++ on 72 h biofilm

KRRWRIWLV [AMP2]
migration after 24 hours ([1]; 67 µg/ml AMP2): reduced the migration of cells
gap size after 48 hours ([1]; 67 µg/ml AMP2, 0.1% FCS, gap at 0 hours = 100%): 71%
migration after 24 hours ([1]; 133 µg/ml AMP2 (data not shown)): no migration was observed
gap after 48 hours ([1]; 133 µg/ml AMP2, 0.1% FCS): still complete open
free-area after 24 hours ([1]; 4–33 µg/ml AMP2 (range also covers positive control and CM without AMP2), 0.1% FCS, gap at 0 hours = 100%): 50–66%
cell-free area after 48 hours ([1]; AMP2 concentrations up to 33 µg/ml, 0.1% FCS, gap at 0 hours = 100%): 12–28%
bacterial growth (S. aureus; AMP2 67 µg/ml preincubated 2 h at 37 °C with 0% FCS): 7 ± 9 cfu/ml
bacterial growth (S. aureus; AMP2 67 µg/ml preincubated 2 h at 37 °C with 0.1% FCS): 37 ± 13 cfu/ml
bacterial growth (S. aureus; AMP2 67 µg/ml preincubated 2 h at 37 °C with 1% FCS): 553 ± 255 cfu/ml
bacterial growth (S. aureus; AMP2 67 µg/ml preincubated 2 h at 37 °C with 10% FCS): 2,078 ± 540 cfu/ml
bacterial growth compared to the group without AMP (S. aureus; AMP2 67 µg/ml, 10% FCS): less than 2%
concentrations with no negative effect on cell viability [2]: < 267 µg/mL
concentrations with significant inhibition of viability compared to the control group [2]: ≥ 267 µg/mL
internalized bacteria compared to 0 μg/ml AMP [= 100%] ([3]; 33 μg/ml, 4 h): 39%
internalized bacteria compared to 0 μg/ml AMP [= 100%] ([3]; 33 μg/ml, 24 h): 3%
internalized bacteria compared to 0 μg/ml AMP [= 100%] ([3]; 67 μg/ml, 4 h): 16%
internalized bacteria compared to 0 μg/ml AMP [= 100%] ([3]; 67 μg/ml, 24 h): 0.18%
reduction of FISH-positive (Cy3) area (S. epidermidis biofilms; [5]): 86%
reduction of the biofilm area (DAPI) compared to the untreated group (S. epidermidis biofilms; [5]): up to 76%
reduction of FISH-positive (Cy3) area (S. epidermidis biofilms; 8 µg/ml AMP2, 24 h in MH++ on 72 h biofilm): 90%
effect on the osteogenic differentiation (expression of RUNX2, AP, Col1) [4]: no effect
